Reference: US10189809B2, “SGC stimulators” (Ironwood Pharmaceuticals, Inc., priority 2010, dated 2019)
Read-outs that look alike come from different tables or passages of the source.

Legend:
[1] = target: T1, Human soluble guanylate cyclase enzyme (hsGC) (Homo sapiens (Human), UniProt Q02108+Q02153); experiment: Purified human sGC enzyme synergy assay in the presence of 1 μM sodium nitroprusside (SNP); format: biochemical; conditions: 30 μM compound, with the addition of SNP
How it was run: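 Fold-change in cGMP-forming specific activity (nmol/mg/min) versus DMSO, with 1 μM SNP present throughout. Reactions held 30 min at 37 °C with 10 or 30 μM compound, 5 ng human sGC, 300 μM GTP, 1 mM IBMX and 2 mM MgCl2 at pH 8.0, then stopped with cold methanol.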

[2] = target: T1, Human soluble guanylate cyclase enzyme (hsGC); experiment: Purified human sGC enzyme activity assay; format: biochemical; conditions: for sGC Enzyme (fold increase at 30 μM): without the addition of SNP
How it was run: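 Values are fold-change of sGC specific activity, nmoles cGMP per mg enzyme per min, relative to DMSO controls. Reactions: 5 ng human enzyme, 300 μM GTP, 1 mM IBMX, 2 mM MgCl2/DTT, 0.1 M Tris pH 8.0, compound 10 or 30 μM final, 37° C for 30 minutes, methanol quench. cGMP read against a 0.078-10 μM final standard curve.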

[3] = target: T2, soluble guanylate cyclase (sGC) (Homo sapiens (Human), UniProt Q02108+Q02153); experiment: sGC-HEK-cGMP assay run in the absence of SNP (HEK WC assay); format: cell-based; conditions: compound at 30 μM, absence of SNP
How it was run: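 Intracellular cGMP was measured by LC/MS, using a standard curve, in HEK293 cells treated with compound for 10 min at 37° C after a 15 min 0.5 mM IBMX pretreatment, with no SNP present. Lysis and quench used 0.1 M HCl. EC50 values came from concentration-response fits.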

[4] = target: T2, soluble guanylate cyclase (sGC); experiment: sGC-HEK-cGMP assay run with SNP incubation (HEK WC assay); format: cell-based; conditions: for HEK WC Assay (fold increase at 30 μM in the presence of 10 μM SNP): compound at 30 μM; for EC50: in the presence of 10 uM SNP
How it was run: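 EC50 values derive from concentration-response curves of intracellular cGMP in HEK293 cells, which express sGC endogenously. Compound and sodium nitroprusside were co-incubated 10 min at 37 °C after a 15-min 0.5 mM IBMX step, with 0.1 M HCl lysis and 1% DMSO vehicle.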

Thoracic aortic rings [5] = experiment: Alternative thoracic aortic rings assay (Example 19b; resting tension as 100% inhibition); parameters: species or system rat; conditions: for inhibition at 1 µM: read-out: Percent Relaxation at 1 μM; for inhibition at 3 µM: read-out: Percent Relaxation at 3 μM; for EC50: read-out: Aortic Ring EC50
How it was run: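 EC50 values come from cumulative concentration-response relaxation of phenylephrine (100 ng/mL)-contracted thoracic aortic rings from 275-299 g male Sprague-Dawley rats. Rings were equilibrated at 1.0 g tension in oxygenated Krebs-Henseleit at 37 °C, with compounds given in DMSO and tension measured isometrically.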

Thoracic aortic rings [6] = experiment: Thoracic aortic rings assay (Example 19a; IBMX as 100% inhibition); conditions: compound at 10 μM, rat thoracic aortic rings contracted with 100 ng/mL phenylephrine
Protocol: Thoracic aortic rings were dissected from anesthetized (isoflurane) male Sprague-Dawley rats weighing 275-299 g. Tissues were immediately transferred to ice-cold Krebs-Henseleit solution, which had been aerated with 95% O2 and 5% CO2 for 30 minutes. Following removal of connective tissue, aortic sections were cut into 4 rings (˜2 mm each) and suspended on 2 L-shaped hooks, with one hook fixed at the bottom of the tissue bath (Schuler Organ Bath, Harvard Apparatus) and the other connected to a force transducer (F30 Force Transducer, Harvard Apparatus). Baths contained Krebs Henseleit solution (10 mL) heated to 37° C. and aerated with 95% O2 and 5% CO2. Rings were brought to an initial tension of 0.3-0.5 g and gradually raised to a resting tension of 1.0 g over 60 minutes. Rings were rinsed with Krebs Henseleit solution (heated to 37° C. and aerated with 95% O2 and 5% CO2) at 15 minute intervals until a stable baseline was obtained. Rings were considered to be stable after a resting tension of 1.0 g was maintained (for approximately 10 minutes) without need for adjustment. Rings were then contracted with 100 ng/mL phenylephrine by adding 100 uL of a 10 μg/mL phenylephrine stock solution. Tissues achieving a stable contraction were then treated in a cumulative, dose dependent manner with test compounds prepared in dimethylsulfoxide (DMSO). In some cases, tissues were rinsed three times over a 5 minute period with Krebs-Heinseleit's solution (heated to 37° C. and aerated with 95% O2 and 5% CO2), allowed to stabilize at baseline, and then used for characterization of other test articles or DMSO effects. All data were collected using the HSE-ACAD software provided by Harvard Apparatus. […] EC50 values were calculated from concentration-response curves generated with GraphPad Prism Software.

[7] = read-out: HEK WC Assay (% Emax at 10 μM with 10 uM SNP)
[8] = read-out: HEK WC Assay (% Emax at 10 μM/with 10 uM SNP)
[9] = read-out: HEK WC Assay (% Emax at 30 μM with 10 uM SNP)
[10] = read-out: HEK WC Assay (% Emax at 30 μM/with 10 uM SNP)
[11] = read-out: HEK WC Assay in the presence of 10 uM SNP EC50

T1 sequence (Q02153 whole entry): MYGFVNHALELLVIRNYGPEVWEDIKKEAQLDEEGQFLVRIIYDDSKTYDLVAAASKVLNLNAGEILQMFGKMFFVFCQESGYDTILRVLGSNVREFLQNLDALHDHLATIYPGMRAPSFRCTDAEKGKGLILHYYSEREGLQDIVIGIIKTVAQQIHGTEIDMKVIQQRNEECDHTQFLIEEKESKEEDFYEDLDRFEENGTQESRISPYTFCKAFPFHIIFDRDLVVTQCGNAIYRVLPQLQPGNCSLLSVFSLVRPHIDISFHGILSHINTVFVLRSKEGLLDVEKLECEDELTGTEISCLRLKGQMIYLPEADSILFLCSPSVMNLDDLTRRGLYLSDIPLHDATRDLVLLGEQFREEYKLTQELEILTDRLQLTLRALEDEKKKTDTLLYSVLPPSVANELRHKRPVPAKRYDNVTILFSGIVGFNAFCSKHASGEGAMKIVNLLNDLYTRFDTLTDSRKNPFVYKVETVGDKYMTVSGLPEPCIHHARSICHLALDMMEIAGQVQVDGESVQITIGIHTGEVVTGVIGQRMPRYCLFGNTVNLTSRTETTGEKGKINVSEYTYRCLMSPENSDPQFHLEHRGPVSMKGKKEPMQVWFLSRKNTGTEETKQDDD
T1 sequence (Q02108 whole entry): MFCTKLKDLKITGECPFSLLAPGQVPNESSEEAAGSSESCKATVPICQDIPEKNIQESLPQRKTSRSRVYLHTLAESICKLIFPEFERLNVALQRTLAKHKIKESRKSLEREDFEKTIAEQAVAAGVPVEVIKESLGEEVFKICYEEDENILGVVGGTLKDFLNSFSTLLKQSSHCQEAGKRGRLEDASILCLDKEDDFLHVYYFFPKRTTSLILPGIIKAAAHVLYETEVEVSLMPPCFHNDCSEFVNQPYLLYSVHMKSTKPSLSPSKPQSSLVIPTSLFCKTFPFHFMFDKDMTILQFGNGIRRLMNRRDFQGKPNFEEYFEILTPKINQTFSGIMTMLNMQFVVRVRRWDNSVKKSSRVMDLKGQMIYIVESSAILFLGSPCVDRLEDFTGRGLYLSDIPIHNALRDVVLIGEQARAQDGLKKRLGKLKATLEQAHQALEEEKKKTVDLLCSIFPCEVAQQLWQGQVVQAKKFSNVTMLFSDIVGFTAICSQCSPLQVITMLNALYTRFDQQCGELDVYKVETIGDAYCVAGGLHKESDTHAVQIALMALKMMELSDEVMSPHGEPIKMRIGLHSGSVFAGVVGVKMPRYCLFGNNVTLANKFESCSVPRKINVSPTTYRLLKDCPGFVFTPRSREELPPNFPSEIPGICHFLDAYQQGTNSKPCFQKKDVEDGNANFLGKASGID
T2 sequence (Q02153 whole entry): as the sequence (Q02153 whole entry) above
T2 sequence (Q02108 whole entry): as the sequence (Q02108 whole entry) above

Row | SMILES | sGC Enzyme (fold increase at 30 μM with SNP) [1] | sGC Enzyme (fold increase at 30 μM) ([2]; 30 μM compound) | HEK WC Assay (fold increase at 30 μM in the absence of SNP) [3] | HEK WC Assay (fold increase at 30 μM in the presence of 10 μM SNP) [4] | Emax [4, 7] [%] | Emax at 10 µM [4, 8] [%] | Emax [4, 9] [%] | Emax at 30 µM [4, 10] [%] | EC50 [4, 11] [µM] | other results
1 | CC(C)(C)NC(=O)c1cnc(-c2cc(-c3ccon3)n(Cc3ccccc3F)n2)nc1N [Compound I-136] | D (D = 10 to <30 fold increase) | C (C = 5 to <10 fold increase) | D (D = 5 to <10 fold increase) | E (E = 10 to <20 fold increase) | 60 to 80 | 20 to 40 | 20 to 40 | 20 to 40 |  | EC50 [4]: < 20 µM; Emax ([4]; read-out: HEK WC Assay (% Emax at 1 μM with 10 uM SNP)): 40 to 60%
2 | Nc1nc(-c2cc(-c3ccon3)n(Cc3ccccc3F)n2)ncc1NC(=O)c1ccccc1 [Compound I-126] | D (D = 10 to <30 fold increase) | D (D = 10 to <30 fold increase) | E (E = 10 to <20 fold increase) | F (F = 20 to <30 fold increase) | 100 to 120 | > 120 | 100 to 120 | 100 to 120 | < 20 | Percent Relaxation at 1 μM (Thoracic aortic rings [5]; Table 10B): F (F = 80 to <100%); Percent Relaxation at 3 μM (Thoracic aortic rings [5]; Table 10B): G (G = 100 to <120%); inhibition at 1 µM (Thoracic aortic rings [5]; Rattus norvegicus, Table 10A): 80 to 100%; inhibition at 3 µM (Thoracic aortic rings [5]; Rattus norvegicus, Table 10A): 100 to 120%; EC50 (Thoracic aortic rings [5]; Rattus norvegicus, Table 10A): < 2 µM; EC50 (Thoracic aortic rings [5]; Table 10B): < 2 µM
3 | Nc1nc(-c2cc(-c3ccon3)n(Cc3ccccc3F)n2)ncc1NC(=O)OCc1ccccc1 [Compound I-125] | D (D = 10 to <30 fold increase) | C (C = 5 to <10 fold increase) | D (D = 5 to <10 fold increase) | F (F = 20 to <30 fold increase) | 80 to 100 | 80 to 100 | 80 to 100 | 80 to 100 | < 20 | 
4 | Nc1nc(-c2nn(Cc3ccccc3F)c3ncccc23)ncc1C1CC1 [Reference Compound, BAY 41-2272, reference compound] |  |  |  |  |  |  |  |  |  | Percent Relaxation at 10 μM (Thoracic aortic rings [6]): 100%
5 | Nc1nc(-c2cc(-c3ccon3)n(Cc3ccccc3F)n2)ncc1N=C(c1ccccc1)c1ccccc1 [Compound I-123, N5-(diphenylmethylene)-2-(1-(2-fluorobenzyl)-5-(isoxazol-3-yl)-1H-pyrazol-3-yl)pyrimidine-4,5-diamine] | B (B = 2 to <5 fold increase) | A (A = no increase to <2 fold increase) | B (B = 1 to <2 fold increase) | C (C = 2 to <5 fold increase) | 10 to 20 | 10 to 20 | 20 to 40 | 20 to 40 |  | 
6 | CC(C)(C)CC(=O)Nc1cnc(-c2cc(-c3ccon3)n(Cc3ccccc3F)n2)nc1N [Compound I-124] | D (D = 10 to <30 fold increase) | D (D = 10 to <30 fold increase) | E (E = 10 to <20 fold increase) | F (F = 20 to <30 fold increase) | 100 to 120 | > 120 | 60 to 80 | 60 to 80 |  | EC50 [4]: < 20 µM
7 | Fc1ccccc1Cn1nc(-c2ccccn2)cc1-c1nccs1 [Compound I-27] |  |  |  |  |  |  |  |  |  | sGC Enzyme (specific activity at 10 μM) ([2]; 10 μM compound): C (C = 100 to <200); sGC Enzyme (fold increase at 10 μM without SNP) ([2]; 10 μM compound, without SNP): B (B = 2 to <5 fold increase); sGC Enzyme (specific activity at 30 μM) ([2]; 30 μM compound): D (D = 200 to <500); sGC Enzyme (fold increase at 30 μM without SNP) ([2]; 30 μM compound, without SNP): B (B = 2 to <5 fold increase); inhibition at 10 µM (Thoracic aortic rings [6]; read-out: Percent Relaxation at 10 μM): 77.2%; Emax at 10 µM ([4]; read-out: HEK WC Assay (% Emax at 10 uM/with 10 uM SNP)): 20 to 40%; Emax at 30 µM ([4]; read-out: HEK WC Assay (% Emax at 30 uM/with 10 uM SNP)): 40 to 60%
8 | Nc1cc(C(F)(F)F)nc(-c2cc(-c3ccon3)n(Cc3ccccc3F)n2)n1 [Compound I-117] | A (A = no increase to <2 fold increase) | A (A = no increase to <2 fold increase) | B (B = 1 to <2 fold increase) | B (B = 1 to <2 fold increase) | 10 to 20 | 10 to 20 | 0 to 10 | 0 to 10 |  | 
9 | COc1ccc(C2=Nc3nc(-c4cc(-c5ccon5)n(Cc5ccccc5F)n4)ncc3C(C)(C)O2)cc1 [Compound I-137] | C (C = 5 to <10 fold increase) | B (B = 2 to <5 fold increase) | C (C = 2 to <5 fold increase) | D (D = 5 to <10 fold increase) | 40 to 60 | 100 to 120 | 40 to 60 | 20 to 40 | 40 to 60 | 
10 | Nc1nc(-c2cc(-c3ccon3)n(Cc3ccccc3F)n2)ncc1C1(O)CC1 [Compound I-119, I-(4-amino-2-(1-(2-fluorobenzyl)-5-(isoxazol-3-yl)-1H-pyrazol-3-yl)pyrimidin-5-yl)cyclopropanol] | D (D = 10 to <30 fold increase) | B (B = 2 to <5 fold increase) | C (C = 2 to <5 fold increase) | E (E = 10 to <20 fold increase) | 100 to 120 | > 120 | 100 to 120 | > 120 | < 20 | Percent Relaxation at 1 μM (Thoracic aortic rings [5]; Table 10B): C (C = 20 to <40%); Percent Relaxation at 3 μM (Thoracic aortic rings [5]; Table 10B): E (E = 60 or <80%); Percent Relaxation at 10 μM (Thoracic aortic rings [5]; 10 μM, Table 10B): G (G = 100 to <120%); inhibition at 1 µM (Thoracic aortic rings [5]; Rattus norvegicus, Table 10A): 20 to 40%; inhibition at 3 µM (Thoracic aortic rings [5]; Rattus norvegicus, Table 10A): 60 to 80%; inhibition at 10 µM (Thoracic aortic rings [5]; Rattus norvegicus, 10 μM, Table 10A, read-out: Percent Relaxation at 10 μM): 100 to 120%; EC50 (Thoracic aortic rings [5]; Rattus norvegicus, Table 10A): < 2 µM; EC50 (Thoracic aortic rings [5]; Table 10B): < 2 µM
11 | C=CCOC1(c2cnc(-c3cc(-c4ccon4)n(Cc4ccccc4F)n3)nc2N)CC1 [Compound I-118, 5-(1-(allyloxy)cyclopropyl)-2-(1-(2-fluorobenzyl)-5-(isoxazol-3-yl)-1H-pyrazol-3-yl)pyrimidin-4-amine] | D (D = 10 to <30 fold increase) | C (C = 5 to <10 fold increase) | D (D = 5 to <10 fold increase) | E (E = 10 to <20 fold increase) | 60 to 80 | 60 to 80 | 40 to 60 | 40 to 60 | 60 to 100 | 
